From patent US9499570B2, “Boron containing small molecules” (priority 2010, dated 2016)
Entries after “also recorded” stand apart in the source; their conditions may differ.

Test system: Schistosoma mansoni schistosomula
Assay: Schistosoma mansoni schistosomula phenotype screen in vitro
Conditions: First Set
Text: Puerto Rican isolates of S. mansoni using Biomphalaria glabrata snails and golden hamsters as intermediate and definitive hosts, respectively, were maintained and handled in the University of California-San Francisco Sandler Center for Tropical Medicine. Patent B. glabrata snails (6-8 weeks after exposure to 5-10 infectious miracidia) were induced to shed infective larvae (cercariae) under light stimulus into the surrounding water. Cercariae were washed in rounds of ice-cold water and concentrated through and over sieves of varying pore sizes. They were then mechanically sheared (separation of heads from tails) as described in Colley D G, et al. Exp Parasitol 1974, 35:44-51, in ice-cold Incomplete Medium 169 (as described in Basch P F. J Parasitol 1981, 67:179-185, minus FBS and antibiotics) by passing 15 times through a double headed 22-gauge syringe needle connected to two 10 mL syringes. The resulting cercarial heads (schistosomula) were separated from their tails by swirling in a petri dish. Concentrated schistosomula were added to a sterile 1.5 mL centrifuge tube and allowed to settle over ice. Schistosomula were transferred to a sterile environment and washed 4 times in Incomplete Medium 169 prior to plating.
Two sets of screening were performed. In the first set, compounds were screened against schistosomula and observations were made at 24 hours, 2 days, 3 days, 4 days, and 6 days. In the second set, compounds were screened against schistosomula with observations at 24 hours, 2 days, 3 days, and 4 days and adult worms at 7 hours, 24 hours, 4 days, and 6 days.
Plates contain 200 schistosomula/well in […] complete Basch medium and were maintained at 37° C. in a 5% CO2 atmosphere. All compounds were tested in duplicate with at least two experimental replicates. Compounds and control compounds were added to the plates using the Biomek FXp using 96-well disposable tips. Final concentration of DMSO in each well was 0.5%.
A semi-quantitative and controlled nomenclature for phenotypes that can arise as a result of compound insult to both schistosomula and adults was utilized (Abdulla M H, et al., PLoS Negl Trop Dis 2009, 3:e478). Phenotypes were recorded by visual inspection and on a flexible time basis but at least at 24 h and 4 day time-points in the case of large scale screening. […] To help eliminate bias, two screen analysts scored phenotypes ‘blind’ both to knowledge of the contents of each screening plate and the phenotypes scored by his/her colleague. Upon completing their individual assessments, each analyst's ‘hit sheet’ was then compared to derive a ‘consensus hit sheet’. Discrepancies in analysts' hit sheets were re-evaluated under the microscope to eventually make a consensus hit call.
Hyper-coiled and coiled represent a verbal description of the visual phenotype as compared to the DMSO control. The + and ++ and +++ means more of the phenotype which preceded it. The − means less of the phenotype which preceded it. Results

COCCNc1ccc(C#N)c(Oc2ccc3c(c2)COB3O)n1 [2-(1-Hydroxy-1,3-dihydro-benzo[c][1,2]oxaborol-5-yloxy)-6-(2-methoxy-ethylamino)-nicotinonitrile]
Schistosomula phenotype day 6: O+ R and Partial D (Partial D=partial killing of worm population)

N#Cc1ccc(Oc2ccc3c(c2)COB3O)nc1OCC(F)F [2-(2,2-Difluoro-ethoxy)-6-(1-hydroxy-1,3-dihydro-benzo[c][1,2]oxaborol-5-yloxy)-nicotinonitrile]
Schistosomula phenotype day 3: O+ and Deg-M (Deg-M=worms in morphological disarray but still living) | Schistosomula phenotype day 6: R O+ and Partial D (Partial D=partial killing of worm population)

N#Cc1ccc(Oc2ccc3c(c2)COB3O)nc1NCCOCc1ccccc1 [2-(2-Benzyloxy-ethylamino)-6-(1-hydroxy-1,3-dihydro-benzo[c][1,2]oxaborol-5-yloxy)-nicotinonitrile]
Schistosomula phenotype 24 h: O+ and some and deg-M | Schistosomula phenotype day 3: O+ and Deg-M (Deg-M=worms in morphological disarray but still living) | Schistosomula phenotype day 6: R O+ and Partial D (Partial D=partial killing of worm population)

Cl.N#Cc1ccc(Oc2ccc3c(c2)COB3O)c(OCc2ccccn2)c1 [2-((5-Cyano-2-(1-hydroxy-1,3-dihydrobenzo[c][1,2]oxaborol-5-yloxy)phenoxy)methyl)pyridine hydrochloride]
Schistosomula phenotype 24 h (hydrochloride): R (R=round) and O++ | Schistosomula phenotype day 2 (hydrochloride): O+, and M− | Schistosomula phenotype day 4 (hydrochloride): O+, and Partial D (Partial D=partial killing of worm population) | Schistosomula phenotype day 6 (hydrochloride): O+, and Partial and D, R

N#Cc1ccc(Oc2ccc3c(c2)COB3O)nc1NCc1ccccc1 [2-Benzylamino-6-(1-hydroxy-1,3-dihydro-benzo[c][1,2]oxaborol-5-yloxy)-nicotinonitrile]
Schistosomula phenotype 24 h: O++ and some and deg-M | Schistosomula phenotype day 6: R O and Partial D (Partial D=partial killing of worm population)

CCOc1nc(Oc2ccc3c(c2)COB3O)ccc1C#N [2-Ethoxy-6-(1-hydroxy-1,3-dihydro-benzo[c][1,2]oxaborol-5-yloxy)-nicotinonitrile]
Schistosomula phenotype day 3: O+ and partial D | Schistosomula phenotype day 6: O+ R and Partial D (Partial D=partial killing of worm population)

N#Cc1ccc(Oc2ccc3c(c2)COB3O)c(OCC2CCCC2)c1 [3-(Cyclopentylmethoxy)-4-(1-hydroxy-1,3-dihydrobenzo[c][1,2]oxaborol-5-yloxy)benzonitrile]
Schistosomula phenotype day 4: R O− and Deg-M D

N#Cc1ccc(Oc2ccc3c(c2)COB3O)c(OC2CCCC2)c1 [3-(Cyclopentyloxy)-4-(1-hydroxy-1,3-dihydrobenzo[c][1,2]oxaborol-5-yloxy)benzonitrile]
Schistosomula phenotype 24 h: O++ and deg-M | Schistosomula phenotype day 3: O+ and Partial D (Partial D=partial killing of worm population) | Schistosomula phenotype day 6: R deg- and M D

N#Cc1ccc(Oc2ccc3c(c2)COB3O)c(OCC2CC2)c1 [3-(Cyclopropylmethoxy)-4-(1-hydroxy-1,3-dihydrobenzo[c][1,2]oxaborol-5-yloxy)benzonitrile]
Schistosomula phenotype day 3: O+ and partial D

COCCOc1nccc(Oc2ccc3c(c2)COB3O)c1C#N [4-(1-Hydroxy-1,3-dihydro-benzo[c][1,2]oxaborol-5-yloxy)-2-(2-methoxyethoxy)-nicotinonitrile]
Schistosomula phenotype 24 h: R (R=round) and O+ | Schistosomula phenotype day 3: O+ and some and partial D | Schistosomula phenotype day 6: O+ R and Partial D (Partial D=partial killing of worm population)

CC(C)OC(=O)c1ccc(Oc2ccc3c(c2)COB3O)c(F)c1 [5-(2-Fluoro-4-isopropyloxycarbonylphenoxy)-1-hydroxy-2,1-benzoxaborole]
Schistosomula phenotype day 4: O−, R

N#Cc1ccc(Oc2ccc3c(c2)COB3O)cc1C(F)(F)F [5-(4-Cyano-3-trifluoromethylphenoxy)-1,3-dihydro-1-hydroxy-2,1-benzoxaborole]
Schistosomula phenotype day 2: O−, and deg-m− | Schistosomula phenotype day 4: O, (O=overactive) and some and deg-m | Schistosomula phenotype day 6: O, (O=overactive) and some and deg-m

CCOC(=O)c1ccc(Oc2ccc3c(c2)COB3O)c(Oc2cc(C#N)ccn2)c1 [5-[4-Ethoxycarbonyl-2-(4-cyanopyridin-2-yloxy)phenoxy]-1,3-dihydro-1-hydroxy-2,1-benzoxaborole]
Schistosomula phenotype day 2: O, (O=overactive); also recorded: deg-m | Schistosomula phenotype day 4: O, (O=overactive) and some and deg-m | Schistosomula phenotype day 6: R, O,; also recorded: Partial D (Partial D=partial killing of worm population)

N#Cc1ccc(Oc2ccc3c(c2)COB3O)nc1OCC(F)(F)F [6-(1-Hydroxy-1,3-dihydro-benzo[c][1,2]oxaborol-5-yloxy)-2-(2,2,2-trifluoro-ethoxy)-nicotinonitrile]
Schistosomula phenotype day 6: O+ R and Partial D (Partial D=partial killing of worm population)

COCCNc1nc(Oc2ccc3c(c2)COB3O)ccc1C#N [6-(1-Hydroxy-1,3-dihydro-benzo[c][1,2]oxaborol-5-yloxy)-2-(2-methoxy-ethylamino)-nicotinonitrile]
Schistosomula phenotype day 6: R O and some and partial D

CC(=O)OCCOc1nc(Oc2ccc3c(c2)COB3O)ccc1C#N [6-(1-Hydroxy-1,3-dihydro-benzo[c][1,2]oxaborol-5-yloxy)-2-(acetyloxyethoxy)-nicotinonitrile]
Schistosomula phenotype day 3: O+ and partial D | Schistosomula phenotype day 6: R O+ and Partial D (Partial D=partial killing of worm population)

CC(C)COc1nc(Oc2ccc3c(c2)COB3O)ccc1C#N [6-(1-Hydroxy-1,3-dihydro-benzo[c][1,2]oxaborol-5-yloxy)-2-isobutoxy-nicotinonitrile]
Schistosomula phenotype 24 h: R− and O− | Schistosomula phenotype day 4: R (R=round) and O−

CC(C)Oc1nc(Oc2ccc3c(c2)COB3O)ccc1C#N [6-(1-Hydroxy-1,3-dihydro-benzo[c][1,2]oxaborol-5-yloxy)-2-isopropoxy-nicotinonitrile]
Schistosomula phenotype day 3: O+ and Deg-M (Deg-M=worms in morphological disarray but still living) | Schistosomula phenotype day 6: R O+ and Partial D (Partial D=partial killing of worm population)

CCCOc1nc(Oc2ccc3c(c2)COB3O)ccc1C#N [6-(1-Hydroxy-1,3-dihydro-benzo[c][1,2]oxaborol-5-yloxy)-2-propoxy-nicotinonitrile]
Schistosomula phenotype day 3: O+ and Deg-M (Deg-M=worms in morphological disarray but still living) | Schistosomula phenotype day 6: R O and partial D

N#Cc1ccc(Oc2ccc3c(c2)COB3O)nc1N1CCCC1 [6-(1-Hydroxy-1,3-dihydro-benzo[c][1,2]oxaborol-5-yloxy)-2-pyrrolidin-1-yl-nicotinonitrile]
Schistosomula phenotype day 3: O+ and Deg-M (Deg-M=worms in morphological disarray but still living) | Schistosomula phenotype day 6: R O and Partial D (Partial D=partial killing of worm population)

N#Cc1cnc(Oc2ccc3c(c2)COB3O)cc1OCCOC1CCCCO1 (centres unmarked) [6-(1-Hydroxy-1,3-dihydro-benzo[c][1,2]oxaborol-5-yloxy)-4-[2-(tetrahydro-pyran-2-yloxy)-ethoxy]-nicotinonitrile]
Schistosomula phenotype 24 h: O++ and deg-M | Schistosomula phenotype day 3: O++ and deg-M | Schistosomula phenotype day 6: Deg-M D
